The values below come from patent US20210395239A1 (Hoffmann-La Roche Inc., priority 2018, published 2021).

This assay addresses T1, human TLR7 (Homo sapiens, UniProt Q9NYK1).
T1 construct: host or cells: HEK293 (HEK-Blue hTLR7)
T1 sequence (Q9NYK1 27-1049): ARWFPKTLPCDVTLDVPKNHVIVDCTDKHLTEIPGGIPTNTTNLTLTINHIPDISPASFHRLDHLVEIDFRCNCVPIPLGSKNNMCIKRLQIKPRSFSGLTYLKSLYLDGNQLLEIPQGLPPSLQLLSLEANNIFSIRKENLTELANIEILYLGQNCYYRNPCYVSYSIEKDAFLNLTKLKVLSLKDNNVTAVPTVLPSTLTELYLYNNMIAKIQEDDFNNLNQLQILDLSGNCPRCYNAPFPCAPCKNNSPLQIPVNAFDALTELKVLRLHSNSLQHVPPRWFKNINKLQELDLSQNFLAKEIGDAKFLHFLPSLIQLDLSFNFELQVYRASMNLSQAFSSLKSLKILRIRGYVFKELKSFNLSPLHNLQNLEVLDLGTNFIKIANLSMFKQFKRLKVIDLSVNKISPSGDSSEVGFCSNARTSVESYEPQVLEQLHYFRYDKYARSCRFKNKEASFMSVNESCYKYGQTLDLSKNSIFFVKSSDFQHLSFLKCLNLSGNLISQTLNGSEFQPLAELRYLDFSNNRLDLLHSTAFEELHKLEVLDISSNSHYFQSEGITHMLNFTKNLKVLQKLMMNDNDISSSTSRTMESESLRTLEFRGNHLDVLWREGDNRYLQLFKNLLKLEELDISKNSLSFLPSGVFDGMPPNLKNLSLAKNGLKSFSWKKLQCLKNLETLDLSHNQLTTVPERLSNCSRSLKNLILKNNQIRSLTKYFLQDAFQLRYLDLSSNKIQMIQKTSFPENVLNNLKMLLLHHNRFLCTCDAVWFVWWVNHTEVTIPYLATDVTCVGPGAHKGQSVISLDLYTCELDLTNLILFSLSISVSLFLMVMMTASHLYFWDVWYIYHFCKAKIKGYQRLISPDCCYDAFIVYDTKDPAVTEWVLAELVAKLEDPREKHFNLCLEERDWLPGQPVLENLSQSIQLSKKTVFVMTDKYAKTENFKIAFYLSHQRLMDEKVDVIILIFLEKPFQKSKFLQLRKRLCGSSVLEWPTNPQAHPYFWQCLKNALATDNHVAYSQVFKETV
The experiment in a line: HEK293-Blue-hTLR-7 cells assay (SEAP reporter, R848 stimulation). Format: cell-based. The following applies: HEK293-Blue-hTLR7 cells, R848, 20 hrs; read-out: HEK/hTLR7 IC50. The method, boiled down: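 HEK293-Blue-hTLR7 cells (NF-κB/AP-1-driven SEAP reporter) were stimulated with R848 alongside serially diluted compound at 1% final DMSO for 20 h at 37 °C. Supernatant SEAP was then developed with QUANTI-Blue for 2 h at 37 °C and absorbance read at 620–655 nm; antagonism is measured as reduced reporter signal.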
Consider `[2H]c1ccc2c(N3C[C@H](CN4CCN(c5ccc(N6CC(C)(N)C6)nc5)CC4)O[C@H](C)C3)ccc(C#N)c2n1` [Example 132, 5-[(2S,6R)-2-[[4-[6-(3-amino-3-methyl-azetidin-1-yl)-3-pyridyl]piperazin-1-yl]methyl]-6-methyl-morpholin-4-yl]-2-deuterio-quinoline-8-carbonitrile], for which the IC50 stood at 23 nM.
As for `Cc1cc(N2CCNCC2)nc(N2CCN(C[C@H]3CN(c4ccc(C#N)c5nccnc45)C[C@@H](C)O3)CC2)n1` [Example 114, 8-[(2R,6S)-2-methyl-6-[[4-(4-methyl-6-piperazin-1-yl-pyrimidin-2-yl)piperazin-1-yl]methyl]morpholin-4-yl]quinoxaline-5-carbonitrile], the IC50 amounted to 3 nM.
As for `[2H]c1ccc2c(N3C[C@H](CN4CC(c5cccc(N6CC(C)(N)C6)n5)C4)O[C@H](C)C3)ccc(C#N)c2n1` [Example 159, 5-[(2S,6R)-2-[[3-[6-(3-amino-3-methyl-azetidin-1-yl)-2-pyridyl]azetidin-1-yl]methyl]-6-methyl-morpholin-4-yl]-2-deuterio-quinoline-8-carbonitrile], the figure is 30 nM; as for `C[C@@H]1CN(c2ccc(C#N)c3ncccc23)C[C@H](CN2CCC(c3cccc(C4CCNCC4)c3)CC2)O1` [Example 2, 5-[(2R,6S)-2-methyl-6-[[4-[3-(4-piperidyl)phenyl]-1-piperidyl]methyl]morpholin-4-yl]quinoline-8-carbonitrile], 93 nM; as for `C[C@@H]1CN(c2ccc(C#N)c3nccnc23)C[C@H](CN2CCN(c3nccc(N4C[C@@H](N)[C@H](F)C4)n3)CC2)O1` [Example 119, 8-[(2S,6R)-2-[[4-[4-[(3R,4R)-3-amino-4-fluoro-pyrrolidin-1-yl]pyrimidin-2-yl]piperazin-1-yl]methyl]-6-methyl-morpholin-4-yl]quinoxaline-5-carbonitrile], 16 nM.
Take `C[C@@H]1CN(c2ccc(C#N)c3ncccc23)C[C@H](CN2CCN(c3ccc(CN)cc3)CC2)O1` [Example 5, 5-[(2S,6R)-2-[[4-[4-(aminomethyl)phenyl]piperazin-1-yl]methyl]-6-methyl-morpholin-4-yl]quinoline-8-carbonitrile]: the IC50 worked out at 54 nM.
As for `COC1CN(c2nccc(N3CCN(C[C@H]4CN(c5ccc(C#N)c6ncccc56)C[C@@H](C)O4)CC3)n2)CC1N` (stereo in doubt) [Example 93, 5-[(2S,6R)-2-[[4-[2-[(3R,4S)-3-amino-4-methoxy-pyrrolidin-1-yl]pyrimidin-4-yl]piperazin-1-yl]methyl]-6-methyl-morpholin-4-yl]quinoline-8-carbonitrile], the figure is 12 nM.
The value for `[2H]c1ccc2c(N3C[C@H](CN4CC(c5ccc(N6C[C@@H](N)[C@H](OC)C6)nc5)C4)O[C@H](C)C3)ccc(C#N)c2n1` [Example 149, 5-[(2S,6R)-2-[[3-[6-[(3R,4R)-3-amino-4-methoxy-pyrrolidin-1-yl]-3-pyridyl]azetidin-1-yl]methyl]-6-methyl-morpholin-4-yl]-2-deuterio-quinoline-8-carbonitrile] was 16 nM.
As for `C[C@@H]1CN(c2ccc(C#N)n3ncc(F)c23)C[C@H](CN2CC(c3ccc(N4CC(C)(N)C4)nc3)C2)O1` [Example 158, 4-[(2S,6R)-2-[[3-[6-(3-amino-3-methyl-azetidin-1-yl)-3-pyridyl]azetidin-1-yl]methyl]-6-methyl-morpholin-4-yl]-3-fluoro-pyrazolo[1,5-a]pyridine-7-carbonitrile], the figure is 3 nM.
